Reference: patent publication US10092575B2, “Substituted thiophene- and furan-fused azolopyrimidine-5-(6H)-one compounds” (DART NEUROSCIENCE (CAYMAN) LTD., priority 2012, dated 2018)

Each molecule was assayed against human PDE1b enzyme (Homo sapiens (Human), UniProt Q01064) (assay: PDE1b inhibitory assay (IMAP TR-FRET)). Conditions: not given.

SMILES	EC50
COc1ccc(Cn2c(=O)n3ncnc3c3c4c(sc32)CN(C(C)C(F)F)CC4)cc1 (centres unmarked) [Example 151, 9-(1,1-Difluoropropan-2-yl)-6-(4-methoxybenzyl)-8,9,10,11-tetrahydropyrido[4′,3′:4,5]thieno[3,2-e][1,2,4]triazolo[1,5-c]pyrimidin-5(6H)-one]	100 to 1000 nM
COc1ccc(Cn2c(=O)n3ncnc3c3c4c(sc32)N(Cc2ccc(Cl)cc2)CCC4)cc1 [Example 152, 8-(4-Chlorobenzyl)-6-(4-methoxybenzyl)-8,9,10,11-tetrahydropyrido[3′,2′:4,5]thieno[3,2-e][1,2,4]triazolo[1,5-c]pyrimidin-5 (6H)-one]	100 to 1000 nM
COc1ccc(Cn2c(=O)n3ncnc3c3c4c(sc32)N(Cc2ccc(Cl)cc2)CCC4)cc1OC [Example 153, 8-(4-Chlorobenzyl)-6-(3,4-dimethoxybenzyl)-8,9,10,11-tetrahydropyrido[3′,2′:4,5]thieno[3,2-e][1,2,4]triazolo[1,5-c]pyrimidin-5 (6H)-one]	1000 to 10000 nM
COc1ccc(Cn2c(=O)n3ncnc3c3c4c(sc32)N(Cc2cccc(Cl)c2)CCC4)cc1OC [Example 155, 8-(3-Chlorobenzyl)-6-(3,4-dimethoxybenzyl)-8,9,10,11-tetrahydropyrido[3′,2′:4,5]thieno[3,2-e][1,2,4]triazolo[1,5-c]pyrimidin-5(6H)-one]	1000 to 10000 nM
COc1ccc(Cn2c(=O)n3ncnc3c3c4c(sc32)CN(C(=O)C2CCN(C)C2)CC4)cc1 (centres unmarked) [Example 163, 6-(4-Methoxybenzyl)-9-(1-methylpyrrolidine-3-carbonyl)-8,9,10,11-tetrahydropyrido[4′,3′:4,5]thieno[3,2-e][1,2,4]triazolo[1,5-c]pyrimidin-5(6H)-one]	100 to 1000 nM
COc1ccc(Cn2c(=O)n3ncnc3c3c4c(sc32)N(C(=O)c2ccccc2)CCC4)cc1OC [Example 176, 8-Benzoyl-6-(3,4-dimethoxybenzyl)-8,9,10,11-tetrahydropyrido[3′,2′:4,5]thieno[3,2-e][1,2,4]triazolo[1,5-c]pyrimidin-5(6H)-one]	1000 to 10000 nM
COc1ccc(Cn2c(=O)n3ncnc3c3c4c(sc32)CN(CC2CNCCO2)CC4)cc1 (centres unmarked) [Example 180, 6-(4-Methoxybenzyl)-9-(morpholin-2-ylmethyl)-8,9,10,11-tetrahydropyrido[4′,3′:4,5]thieno[3,2-e][1,2,4]triazolo[1,5-c]pyrimidin-5(6H)-one]	100 to 1000 nM
COc1ccc(Cn2c(=O)n3ncnc3c3c4c(sc32)CN(C(=O)C2CCNC2)CC4)cc1 (centres unmarked) [Example 181, 6-(4-Methoxybenzyl)-9-(pyrrolidine-3-carbonyl)-8,9,10,11-tetrahydropyrido[4′,3′:4,5]thieno[3,2-e][1,2,4]triazolo[1,5-c]pyrimidin-5(6H)-one]	100 to 1000 nM
COc1ccc(Cn2c(=O)n3ncnc3c3c4c(sc32)CN(CC2CCNCC2)CC4)cc1 [Example 182, 6-(4-Methoxybenzyl)-9-(piperidin-4-ylmethyl)-8,9,10,11-tetrahydropyrido[4′,3′:4,5]thieno[3,2-e][1,2,4]triazolo[1,5-c]pyrimidin-5(6H)-one]	100 to 1000 nM
COc1ccc(Cn2c(=O)n3ncnc3c3c4c(sc32)CNCC4)cc1 [Example 183, 6-(4-Methoxybenzyl)-8,9,10,11-tetrahydropyrido[4′,3′:4,5]thieno[3,2-e][1,2,4]triazolo[1,5-c]pyrimidin-5(6H)-one]	100 to 1000 nM
COc1ccc(Cn2c(=O)n3ncnc3c3c4c(sc32)CCNC4)cc1 [Example 184, 6-(4-Methoxybenzyl)-8,9,10,11-tetrahydropyrido[3′,4′:4,5]thieno[3,2-e][1,2,4]triazolo[1,5-c]pyrimidin-5(6H)-one]	100 to 1000 nM

Same assay, conditions: negative log of half-maximal molar inhibitory concentration; 200 nM FAM-cAMP; reported as ranges

SMILES	PDE1b (pEC50)
COc1ccc(Cn2c(=O)n3ncnc3c3c4c(sc32)CN(Cc2ccccn2)CCC4)cc1 [Example 146, 6-(4-Methoxybenzyl)-9-(pyridin-2-ylmethyl)-6,8,9,10,11,12-hexahydro-5H-[1,2,4]triazolo[1″,5″:1′,6′]pyrimido[5′,4′:4,5]thieno[2,3-c]azepin-5-one]	>7
COc1ccc(Cn2c(=O)n3ncnc3c3c4c(sc32)CN(CC2CCOCC2)CCC4)cc1 [Example 147, 6-(4-Methoxybenzyl)-9-((tetrahydro-2H-pyran-4-yl)methyl)-6,8,9,10,11,12-hexahydro-5H-[1,2,4]triazolo[1″,5″:1′,6′]pyrimido[5′,4′:4,5]thieno[2,3-c]azepin-5-one]	>7
COc1ccc(Cn2c(=O)n3ncnc3c3c4c(sc32)N(CC2CCOCC2)CCC4)cc1 [Example 148, 6-(4-Methoxybenzyl)-8-((tetrahydro-2H-pyran-4-yl)methyl)-8,9,10,11-tetrahydropyrido[3′,2′:4,5]thieno[3,2-e][1,2,4]triazolo[1,5-c]pyrimidin-5(6H)-one]	>7
COc1ccc(Cn2c(=O)n3ncnc3c3c4c(sc32)N(CC2CCCOC2)CCC4)cc1 (centres unmarked) [Example 149, 6-(4-Methoxybenzyl)-8-((tetrahydro-2H-pyran-3-yl)methyl)-8,9,10,11-tetrahydropyrido[3′,2′:4,5]thieno[3,2-e][1,2,4]triazolo[1,5-c]pyrimidin-5(6H)-one]	>7
COc1ccc(Cn2c(=O)n3ncnc3c3c4c(sc32)N(CC2CCOC2)CCC4)cc1 (centres unmarked) [Example 150, 6-(4-Methoxybenzyl)-8-((tetrahydrofuran-3-yl)methyl)-8,9,10,11-tetrahydropyrido[3′,2′:4,5]thieno[3,2-e][1,2,4]triazolo[1,5-c]pyrimidin-5(6H)-one]	>7
COc1ccc(Cn2c(=O)n3ncnc3c3c4c(sc32)CN(CC2CCOCC2)CC4(F)F)c(F)c1 [Example 156, 11,11-Difluoro-6-(2-fluoro-4-methoxybenzyl)-9-((tetrahydro-2H-pyran-4-yl)methyl)-8,9,10,11-tetrahydropyrido[4′,3′:4,5]thieno[3,2-e][1,2,4]triazolo[1,5-c]pyrimidin-5(6H)-one]	>7
O=C(c1cnccn1)N1CCc2c(sc3c2c2ncnn2c(=O)n3Cc2ccc(Cl)cc2)C1 [Example 157, 6-(4-Chlorobenzyl)-9-(pyrazine-2-carbonyl)-8,9,10,11-tetrahydropyrido[4′,3′:4,5]thieno[3,2-e][1,2,4]triazolo[1,5-c]pyrimidin-5(6H)-one]	>7
COc1ccc(Cn2c(=O)n3ncnc3c3c4c(sc32)CN(C(=O)C2CC2)CC4)cc1 [Example 159, 9-(Cyclopropanecarbonyl)-6-(4-methoxybenzyl)-8,9,10,11-tetrahydropyrido[4′,3′:4,5]thieno[3,2-e][1,2,4]triazolo[1,5-c]pyrimidin-5(6H)-one]	>7
COc1ccc(Cn2c(=O)n3ncnc3c3c4c(sc32)CN(S(C)(=O)=O)CC4)cc1 [Example 162, 6-(4-Methoxybenzyl)-9-(methylsulfonyl)-8,9,10,11-tetrahydropyrido[4′,3′:4,5]thieno[3,2-e][1,2,4]triazolo[1,5-c]pyrimidin-5(6H)-one]	>7
O=C(C1CC1)N1CCc2c(sc3c2c2ncnn2c(=O)n3Cc2ccc(Cl)cc2F)C1 [Example 164, 6-(4-Chloro-2-fluorobenzyl)-9-(cyclopropanecarbonyl)-8,9,10,11-tetrahydropyrido[4′,3′:4,5]thieno[3,2-e][1,2,4]triazolo[1,5-c]pyrimidin-5(6H)-one]	>7
COc1ccc(Cn2c(=O)n3ncnc3c3c4c(sc32)CN(C(=O)C2CCOC2)CC4(F)F)cc1 (centres unmarked) [Example 166, 11,11-Difluoro-6-(4-methoxybenzyl)-9-(tetrahydrofuran-3-carbonyl)-8,9,10,11-tetrahydropyrido[4′,3′:4,5]thieno[3,2-e][1,2,4]triazolo[1,5-c]pyrimidin-5 (6H)-one]	>7
COc1ccc(Cn2c(=O)n3ncnc3c3c4c(sc32)CN(C(=O)C2CCOC2)CC4)c(F)c1 (centres unmarked) [Example 167, 6-(2-Fluoro-4-methoxybenzyl)-9-(tetrahydrofuran-3-carbonyl)-8,9,10,11-tetrahydropyrido[4′,3′:4,5]thieno[3,2-e][1,2,4]triazolo[1,5-c]pyrimidin-5(6H)-one]	>7
COc1ccc(Cn2c(=O)n3ncnc3c3c4c(sc32)CN(C(=O)C2CC2)CC4)c(F)c1 [Example 168, 9-(Cyclopropanecarbonyl)-6-(2-fluoro-4-methoxybenzyl)-8,9,10,11-tetrahydropyrido[4′,3′:4,5]thieno[3,2-e][1,2,4]triazolo[1,5-c]pyrimidin-5(6H)-one]	>7
COc1ccc(Cn2c(=O)n3ncnc3c3c4c(sc32)CN(C(=O)[C@@H]2CCOC2)CC4)cc1 [Example 169, (R)-6-(4-Methoxybenzyl)-9-(tetrahydrofuran-3-carbonyl)-8,9,10,11-tetrahydropyrido[4′,3′:4,5]thieno[3,2-e][1,2,4]triazolo[1,5-c]pyrimidin-5(6H)-one]	>7
COc1ccc(Cn2c(=O)n3ncnc3c3c4c(sc32)CN(C(=O)C2CCOC2)CC4)cc1 (centres unmarked) [Example 170, 6-(4-Methoxybenzyl)-9-(tetrahydrofuran-3-carbonyl)-8,9,10,11-tetrahydropyrido[4′,3′:4,5]thieno[3,2-e][1,2,4]triazolo[1,5-c]pyrimidin-5(6H)-one]	>7
COc1ccc(Cn2c(=O)n3ncnc3c3c4c(sc32)N(C(=O)C2CC2)CCC4)cc1 [Example 174, 8-(Cyclopropanecarbonyl)-6-(4-methoxybenzyl)-8,9,10,11-tetrahydropyrido[3′,2′:4,5]thieno[3,2-e][1,2,4]triazolo[1,5-c]pyrimidin-5(6H)-one]	>7
COc1ccc(Cn2c(=O)n3ncnc3c3c4c(sc32)N(C(=O)C2CCOC2)CCC4)cc1 (centres unmarked) [Example 175, 6-(4-Methoxybenzyl)-8-(tetrahydrofuran-3-carbonyl)-8,9,10,11-tetrahydropyrido[3′,2′:4,5]thieno[3,2-e][1,2,4]triazolo[1,5-c]pyrimidin-5(6H)-one]	>7
COc1ccc(Cn2c(=O)n3ncnc3c3c4c(sc32)CN(c2ccccn2)CC4)cc1 [Example 179, 6-(4-Methoxybenzyl)-9-(pyridin-2-yl)-8,9,10,11-tetrahydropyrido[4′,3′:4,5]thieno[3,2-e][1,2,4]triazolo[1,5-c]pyrimidin-5(6H)-one]	>7
